The values below come from article PMC8208971, “Copper-binding anticancer peptides from the piscidin family: an expanded mechanism that encompasses physical and chemical bilayer disruption” (Scientific Reports, 2021).

For data set [1], the system named is A549 human lung cancer cells. Put plainly: MTT cytotoxicity assay on A549 cells. The format is cell-based. Conditions: for Factor by which metallation with Cu^2+ increases efficacy, A549: from average IC50 values, apo vs Cu^2+-bound. Background: Formazan colour is commonly taken as a measure of viable cells.
The subject of data set [2] is MDA-MB-231 (breast) cancer cells. In kind it is cell-based. The note with it: for IC50: 24 h.
Data set [3] deals with normal MRC-5 (lung) fibroblast cells. As to the kind of experiment: Cytotoxicity assay on normal MRC-5 fibroblasts. The note with it: 95% confidence interval in parentheses; for apo-P1 given as 50% inhibition at. The format is cell-based. The text has this:
A549 human lung cancer cells were obtained from ATCC (ATCC CCL-185) and were maintained in Dulbecco’s Modified Eagle’s Medium (DMEM-F12, Lonza, catalog no. 12-719F) supplemented with 10% heat inactivated FBS and 1% Penn-Step. The HT1080 and MRC-5 cells were purchased from ATCC (catalog no. CCL-121 and CCL-171, respectively) and grown in Eagle’s Minimum Essential Medium (ATCC, catalog no. 30-2003TM) that was supplemented with FBS (ATCC, catalog no. 30-2021TM) such that the medium contained 10% FBS. The MDA-MB-231 and HeLa cells were obtained from ATCC (ATCC, catalog no. HTB-26 and CCL-2, respectively) and maintained in DMEM supplemented with 10% FBS. All cell cultures were grown at 37.5 °C in a humidified 5% CO2 atmosphere.
The cytotoxicity assays followed well established procedure, with the details given in the Supplementary Information. The assays were performed in triplicates using 96 well plates Cell viability was calculated using the equation: % viability = [(AT-AB)/(AC-AB)] × 100, where AT is the absorbance of the treatment well, AB is the average background absorbance measured from three wells containing only media, and AC is the absorbance of the […] control well, which received only 100 µL of media and 40 µL of MTT solution (i.e. no peptide). Averages and error bars were calculated as the mean + / − standard deviation based on triplicates. The IC50 values were obtained by fitting the percentage viability (% viability) vs Log (M) concentration of peptides to generate inhibitor dose response curve using the GraphPad Prism software. The curves were fitted using a least-squares minimization method. Individual data points on the graphs are provided as the mean (± standard deviation) from the triplicate % viability values. The GraphPad Prism algorithm converted the logIC50 into IC50 and used the standard error of the mean on the logIC50 to yield the 95% confidence interval for the logIC50 and IC50.
P1-Cu2+ and P3-Cu2+ were assayed on normal MRC-5 (lung) fibroblast cells (ATTC catalog no CCL-171), giving
given in parentheses. […]

The test system of data set [4] is HT1080 (fibrosarcoma) cancer cells. Put plainly: MTS cytotoxicity assay on HT1080 cells. In kind it is cell-based.
Data set [5] can be described thus: SPR/EIS on tethered bilayer membrane (membrane permeation). The note with it: POPC tBLM, Tris 20 mmol/L, 50 mmol/L NaCl, pH 7.4; steps of 0.1 μmol/L, 10 min each. How it is done:
Planar, tethered bilayer membranes (tBLM) supported on gold-coated surfaces (Fig. 2C) were made using 1-palmitoyl-2-oleoyl-sn-glycero-3-phosphocholine (POPC) to mimic cancer cell membranes[80],[81]. Combined, surface plasmon resonance (SPR)/electrical impedance spectroscopy (EIS) measurements (Fig. 3) were conducted by injecting the peptide in small increments while simultaneously observing (1) the kinetics associated with the peptides binding to the bilayer (SPR) and (2) the formation of peptide-lined defects that increase membrane permeation and conductance (EIS). […]
SPR/EIS measurements were carried out on tethered bilayer membrane (tBLM) using a custom-built instrument previously described (Fig. 2B)[123],[124]. […] Several POPC tBLMs were assembled on the gold surfaces using thiolated polyethyleneglycol linker molecules (1,2-di-O-myristyl-3-[ω-mercaptohexa(ethylene oxide) glycerol] (WC14) and β-mercaptoethanol (βME) at a ratio of 70:30 βME:WC14. The tBLMs were equilibrated in Tris buffer (20 mmol/L, 50 mmol/L NaCl, pH 7.4) and allowed to rest until both SPR and EIS signals were stable, before peptide injection. Two types of measurements were done. In the first type (Fig. 3), the peptide concentration was increased gradually, in steps of 0.1 μmol/L, and the SPR/EIS was monitored for 10 min after each addition. […]

Data set [6] can be described thus: Lipid oxidation, absorbance at 234 nm. The note with it: SUVs 0.20 mg/mL, P/L = 1:10 (26 µmol/L), 4 mmol/L phosphate pH 7.8, 24 h exposure to air, triplicates. The text has this:
It has long been known that certain divalent metal ions, especially iron and copper, promote lipid peroxidation (oxidative deterioration of polyunsaturated fatty acids), a mechanism that has been strongly associated with cellular injury and death. Divalent transition-metal ions participate in Fenton-like chemical reactions produces ROS (e.g., hydroxyl radicals, superoxide) that can oxidize double bonds within the membrane. Here, to learn about the possible piscidin/Cu^2+-mediated oxidation of double bonds in lipid bilayers, we used absorbance and mass spectrometry to measure the formation of the oxidation products in small unilamellar vesicles (SUV) constituted of di-linoleoyl-sn-glycero-3-phosphocholine (DLPC) and POPG mixed in a 3:1 molar ratio and prepared at a concentration of 0.50 mg total lipid/mL. We first tested the ability of free Cu^2+ to oxidize the double bonds within the liposomes. Increasing amounts of Cu^2+ for a fixed amount of lipids (expressed as Cu/L, the molar ratio of Cu^2+ to total lipid) were mixed with the SUVs and the absorbance was measured at λ = 234 nm (Fig. 7A) (corresponding to λmax for the conjugated dienes that appear in lipid oxidation products)[92],[93]. Because molecular oxygen (O2) found in the atmosphere readily dissolves in the bilayer, no exogenous oxidant is needed to initiate the oxidation of the double bonds. […]

For data set [7], the system named is normal MRC-5 (lung) fibroblast cells. The arrangement: dose or concentration left out as unconfirmed. Conditions: at about; ref Lin et al.1; cited from earlier work. The text has this: (§1) Tested at up to 10 µ mol/L ...
The subject of data set [8] is HGF-1 (gingival) fibroblast cells. The note with it: tested at up; no significant inhibitory effects; ref Cheng et al.2; cited from earlier work.
From the text: as §1

In data set [9] the test system is OMF (mucosal) fibroblast cells. The note with it: tested at up to 10 mol/L; no significant inhibitory effects; ref Cheng et al.2; cited from earlier work.
From the text: as §1

For data set [10], the system named is HeLa (cervical) cancer cells. As to the kind of experiment: MTS cytotoxicity assay on HeLa cells. In kind it is cell-based. The note with it: 24 h treatment, triplicates, 95% CI in parentheses, for P3 first data point at 0.16 µmol/L not used, holo-forms 1:1 CuCl2.

Like-named read-outs stand apart in the source and are kept apart here. No end group written: not given here.

Regarding FIHHIFRGIVHAGRSIGRFLTG-NH2 [P3-Cu^2+], the IC50 (usually the concentration that inhibits the measured activity by half) in data set [1] (24 h) amounted to 2.99 µM; in data set [2], 5.25 µM; in [3], 8.62 µM; in [4] (24 h), 5.52 µM.
In the case of “FIHHIFRGIVHAGRSIGRFLTG-NH2 [P3, piscidin 3]”, the “Peptide concentration inducing drop in bilayer resistance (EIS)” value in [5] was 0.5 µmol/L. Further, the concentration for half-maximal inhibition (IC50) in data set [1] (24 h) came to 21.6 µM; in data set [2], 17.5 µM; in data set [4] (24 h), 26 µM. Further, the “Factor by which metallation with Cu^2+ increases efficacy, A549” value in [1] is listed as “≈ 7 fold”. Also, the “Lipid oxidation (absorbance peak at 234 nm)” value in [6] is “little lipid oxidation”. In [4] (from average IC50 values, apo vs Cu^2+-bound), the “Factor by which metallation with Cu^2+ increases efficacy, HT1080” value is “≈ 5 fold”.
Consider `[Cl][Cu][Cl]` [Free Cu^2+, CuCl2, reference compound], for which the “Cytotoxicity of free Cu^2+” value in [4] (CuCl2 tested at up to 30 µmol/L, HT1080 cells, same conditions as the peptides (Fig. S1B)) is recorded as “not cytotoxic”.
Regarding “FFHHIFRGIVHVGKTIHRLVTG-NH2 [P1, piscidin 1]”, the “Inhibition of MRC-5 cells” value in [7] is on record as ~ 45%. Moreover, the “Peptide concentration inducing drop in bilayer resistance (EIS)” value in data set [5] was 0.2 µmol/L. The “Factor by which metallation with Cu^2+ increases efficacy, A549” value in data set [1] was “≈ 2 fold”. Further, the “Lipid oxidation (absorbance peak at 234 nm)” value in data set [6] is “little lipid oxidation”. Also, in data set [2] (from average IC50 values, apo vs Cu^2+-bound, given as 'up to'), the “Factor by which metallation with Cu^2+ increases efficacy, MDA-MB-231” value is reported as “≈ 2 fold”. Besides, the “Survival, HGF-1” value in data set [8] is on record as greater than 90%. For the same compound, the “Survival, OMF” value in data set [9] is greater than 90%. Further, in data set [3], the IC50 turned out to be 8.56 µM.
Consider FFHHIFRGIVHVGKTIHRLVTG-NH2 [P1-Cu^2+], for which the IC50 in data set [10] was determined as 2.17 µM; in data set [1] (MTT, 24 h treatment, triplicates, 95% CI in parentheses, holo-forms 1:1 CuCl2, read-out: IC50, A549), 2.15 µM; in [3] it was 5.97 µM; in [4] (MTS, 24 h treatment, triplicates, 95% confidence interval in parentheses, holo-forms metallated 1:1 with CuCl2, read-out: IC50, HT1080), 5.31 µM.
